Laboratory results taken from article PMC6277434, “Discovery of a potent HMG-CoA reductase degrader that eliminates statin-induced reductase accumulation and lowers cholesterol” (Nature Communications, 2018).

Biological target: T1, HMGCR (Cricetulus griseus, UniProt P00347)
T1 construct: endogenous in cells; host or cells: CHO-7, CHG, SRD-13A, SRD-15
T1 sequence (P00347 1-887): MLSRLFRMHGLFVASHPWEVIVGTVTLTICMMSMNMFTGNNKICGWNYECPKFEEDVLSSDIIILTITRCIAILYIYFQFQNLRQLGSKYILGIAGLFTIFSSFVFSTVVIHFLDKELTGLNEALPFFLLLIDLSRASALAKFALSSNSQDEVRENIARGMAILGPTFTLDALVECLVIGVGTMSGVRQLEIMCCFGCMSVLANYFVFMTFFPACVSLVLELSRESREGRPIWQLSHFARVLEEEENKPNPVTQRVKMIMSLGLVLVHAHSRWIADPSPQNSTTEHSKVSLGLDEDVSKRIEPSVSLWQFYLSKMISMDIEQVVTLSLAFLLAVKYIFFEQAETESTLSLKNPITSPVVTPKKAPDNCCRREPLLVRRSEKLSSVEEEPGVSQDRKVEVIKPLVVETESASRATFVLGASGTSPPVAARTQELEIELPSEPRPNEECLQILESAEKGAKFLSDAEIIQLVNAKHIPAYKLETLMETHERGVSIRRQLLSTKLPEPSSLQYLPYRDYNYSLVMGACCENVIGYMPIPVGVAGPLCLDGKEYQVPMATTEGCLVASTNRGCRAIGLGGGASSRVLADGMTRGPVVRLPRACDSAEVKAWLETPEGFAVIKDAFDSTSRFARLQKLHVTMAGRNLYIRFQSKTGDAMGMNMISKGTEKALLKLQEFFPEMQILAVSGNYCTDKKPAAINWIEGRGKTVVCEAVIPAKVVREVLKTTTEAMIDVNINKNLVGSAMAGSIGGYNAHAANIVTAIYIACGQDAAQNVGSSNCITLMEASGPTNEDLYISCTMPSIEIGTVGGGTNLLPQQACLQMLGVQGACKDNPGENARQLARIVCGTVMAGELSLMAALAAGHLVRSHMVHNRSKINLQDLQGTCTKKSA
Assay: Immunoblotting of endogenous HMGCR protein in CHO-7 (or CHG) cells
Assay type: cell-based, Chinese hamster
Conditions: for endogenous HMGCR protein (immunoblot), mean: DMSO = 100; for HMGCR protein fold change: untreated = 1
Protocol: CHO-7 (Chinese hamster ovary cell, a clone of CHO-K1 cell line selected for growth in LPDS) and Huh7 (a human hepatocellular carcinoma cell line), SRD-13A (a Scap-deficient CHO-7 cell line) and SRD-15 (an Insig-1 and Insig-2-deficient CHO-7 cell line) were generous gifts from Russell Debose-Boyd at UT Southwestern Medical Center, USA. All cells were grown in a monolayer at 37 °C with 5% CO2. Huh7 cells were maintained in medium A supplemented with 10% FBS. CHO-7 and SRD-15 cells were maintained in medium B supplemented with 5% FBS. SRD-13A cells were maintained in medium B with 5% FBS, 5 μg ml^−1 cholesterol, 1 mM sodium mevalonate, 10 μM sodium oleate. No cell lines used in this study were found in the database of commonly misidentified cell lines that is maintained by ICLAC and NCBI Biosample. The cell lines have not been authenticated recently. No test for mycoplasma contamination was performed.
Cells were harvested and homogenized in the RIPA buffer (50 mM Tris-HCl, pH 8.0, 150 mM NaCl, 2 mM MgCl2, 1.5% NP-40, 0.1% SDS, and 0.5% sodium deoxycholate) supplemented with protease cocktail inhibitor, 10 μM MG-132, 10 μg ml^−1 leupeptin and 1 mM phenylmethylsulfonyl fluoride. The protein concentrations of lysates were determined using BCA method (Beyotime). Samples were mixed with the membrane protein solubilization buffer (62.5 mM Tris-HCl, pH 6.8, 15% SDS, 8 M urea, 10% glycerol, and 100 mM DTT) plus the 4× loading buffer (150 mM Tris-HCl, pH 6.8, 12% SDS, 30% glycerol, 6% 2-mercaptoethanol, and 0.02% bromophenol blue) and incubated for 30 min at 37 °C. Proteins were resolved by SDS-PAGE and transferred to nitrocellulose membranes (GE Healthcare). Immnoblots were blocked with 5% non-fat milk in TBS containing 0.075% Tween-20 (TBST) and probed with indicated antibodies overnight at 4 °C. After washing in TBST for five times, blots were incubated with HRP-conjugated secondary antibodies for 2 h at room temperature. Immunoreactivity was developed with Clarity Western ECL chemiluminescent substrates (170–5061, Bio-Rad). Western blot images were captured by Amersham Imager 600 (GE Healthcare), and integrated optical intensities of each band were quantified by Image-Pro Plus 6 software (Media Cybernetics). Uncropped blots are shown in Supplementary Figs. 9–13.

Q: With `C=CCC(O)(CC=C)CCCC(C)C1CCC2C3C(O)C=C4C(C)(C)C(O)CCC4(C)C3CCC12C` (stereo not shown) [Cmpd 81] as the molecule, how does the “endogenous HMGCR protein (immunoblot), mean” value (from here on “endogenous HMGCR protein”) (CHO-7, 0.01 uM, 16 h) read?
A: 96.5896

Q: What about the “endogenous HMGCR protein” value (CHO-7, 0.03 uM, 16 h) of the same molecule?
A: 105.12

Q: And the “endogenous HMGCR protein” value (CHO-7, 0.1 uM, 16 h)?
A: 84.2505

Q: What about the “endogenous HMGCR protein” value (CHO-7, 0.3 uM, 16 h) of the same molecule?
A: 66.4121

Q: And the “endogenous HMGCR protein” value (CHO-7, 1 uM, 16 h)?
A: 9.931

Q: What about the “endogenous HMGCR protein” value (CHO-7, 3 uM, 16 h) of the same molecule?
A: 3.826

Q: And the “HMGCR degradation induced by Cmpd 81 on addition of proteasome inhibitor MG-132” value (CHO-7, 10 μM MG-132, 5 h)?
A: completely blocked

Q: And the “endogenous HMGCR protein” value (CHO-7, 10 uM, 16 h)?
A: 1.121

Q: And the “endogenous HMGCR protein” value (CHO-7, 20 uM, 16 h)?
A: 1.6114

Q: And the “HMGCR protein fold change” value (CHO-7, Cmpd 81 1 μM with lovastatin 1 μM)?
A: 5.141

Q: And the “HMGCR protein fold change” value (CHO-7, Cmpd 81 1 μM, without lovastatin)?
A: 0.3231

Q: What about the “HMGCR protein fold change” value (CHO-7, Cmpd 81 3 μM with lovastatin 1 μM) of the same molecule?
A: 1.706

Q: And the “HMGCR protein fold change” value (CHO-7, Cmpd 81 3 μM, without lovastatin)?
A: 0.1204

Q: And the “HMGCR protein fold change” value (CHO-7, Cmpd 81 10 μM with lovastatin 1 μM)?
A: 0.399

Q: And the “reduction in HMGCR” value (CHO-7 cells, 1 μM, 16 h)?
A: more than 80%

Q: What about the EC50 (CHO-7 cells, 16 h, read-out: EC50 to decrease endogenous HMGCR (dose–response immunoblotting)) of the same molecule?
A: 390 nM

Q: And the “HMGCR protein induced by simvastatin, pravastatin, fluvastatin, atorvastatin and rosuvastatin” value (cultured cells)?
A: similarly reduced

Q: `CC[C@H](C)C(=O)O[C@H]1C[C@@H](C)C=C2C=C[C@H](C)[C@H](CC[C@@H]3C[C@@H](O)CC(=O)O3)[C@H]21` [Lovastatin, lovastatin] was tested. Which “HMGCR protein level, mean” value (CHO-7, lovastatin 0.001 uM, 16 h, DMSO = 1) did it give?
A: 1.706

Q: What about the “HMGCR protein level, mean” value (CHO-7, lovastatin 0.003 uM, 16 h, DMSO = 1) of the same molecule?
A: 2.872

Q: And the “HMGCR protein level, mean” value (CHO-7, lovastatin 0.01 uM, 16 h, DMSO = 1)?
A: 6.395

Q: What about the “HMGCR protein level, mean” value (CHO-7, lovastatin 0.03 uM, 16 h, DMSO = 1) of the same molecule?
A: 10.2955

Q: What about the “HMGCR protein level, mean” value (CHO-7, lovastatin 0.1 uM, 16 h, DMSO = 1) of the same molecule?
A: 11.6269

Q: What about the “HMGCR protein level, mean” value (CHO-7, lovastatin 0.3 uM, 16 h, DMSO = 1) of the same molecule?
A: 13.3691

Q: And the “HMGCR protein fold change” value (CHO-7, lovastatin 1 μM alone)?
A: 16.2295

Q: What about the “HMGCR protein level, mean” value (CHO-7, lovastatin 1 uM, 16 h, DMSO = 1) of the same molecule?
A: 14.123

Q: What about the “HMGCR protein level, mean” value (CHO-7, lovastatin 3 uM, 16 h, DMSO = 1) of the same molecule?
A: 14.7817

Q: And the “HMGCR protein level, mean” value (CHO-7, lovastatin 10 uM, 16 h, DMSO = 1)?
A: 14.2587

Q: What about the “increase of HMGCR protein (maximum increment)” value (CHO-7 cells, statin 16 h, DMSO = 1) of the same molecule?
A: ~ 15 fold
